{"source": "patent US6585987B1", "about": "“Complexes of hyaluronic acid/carnitines and pharmaceutical and cosmetic compositions” (Continental Projects Limited, priority 1998, dated 2003)", "key": {"[1]": {"system": "trophic ulcers of lower limbs", "assay": "Clinical trial in trophic ulcers of lower limbs, topical treatment", "format": "in vivo, human", "conditions": "for number of patients with VERY GOOD result: 30 patients; for overall results compared with the combination (in words): same treatment time", "method": "The used protocol is the following one:\n1) Topical administrations of a combination of hyaluronic acid and carnitine (1:1 by weight), or of carnitine alone or of hyaluronic acid alone, previous humidification of the lesion with saline for a time of 10 minutes. In the first treatments, it is possible to use hyaluronic acid at a higher concentration than carnitine, to promote ulcer cleansing. In the following treatments, such concentrations of the two molecules have been used as to better make use of the role of carnitine in normalizing tissue trophism. Treatment usually started during hospitalization and was subsequently continued at the nalgesic therapy clinic.\nPatients enrolled in this trial came from Medicine and Surgery Departments, where they unsuccessfully received various medical treatments (mesoglycan, Connectivine, mucopolysaccharides).\n18 females and 12 males were treated, of age from 62 to 80 years, with trophic ulcers of various size and at different sites, anyhow on limbs or feet.\nResults were scored as follows: VERY GOOD, when the ulcer healed completely; GOOD, when an at least 50% reduction of the lesion was attained; NULL, when no significant changes of the lesion occurred after 30 day-treatment."}, "ornithinedecarboxylase": {"system": "ornithinedecarboxylase", "assay": "Increase of ornithinedecarboxylase activity induced by theleocidin in skin", "format": "in vivo, mice", "conditions": "epidermis five hours after", "method": "These skin alterations increase the ornithinedecarboxylase enzyme, and this increase is related to the severity of the induced cutaneous damage.\nIn these experiences, theleocidin is injected on mice back shaved skin at a dosage of 5 mcg/mouse dissolved in 0.2 cc of solution.\nHA and AC either administered alone, or together or in the form of a complex according to the invention, are spread five minute's before theleocidin on the backs of the animals. Ornithinedecarboxylase is dosed on the homogenised epidermis of the animals five hours after the theleocidin injection, according to the method by O'Brien and Nakadate (O'Brien T. G., Cancer Res., 35, 1662, 1975—Nakadate T. Cancer Res., 42, 2841, 1982). Protein concentration of an epidermis extract is evaluated following the method described by Lowry (Lowry O. H., J. Biol. Chem., 193, 265, […])."}, "cartilage explants [2]": {"system": "cartilage explants", "assay": "Net loss of labelled PG and HA from cartilage explants (chase studies)", "format": "cell-based, human", "method": "(§1) Thirty-five subjects were included in the study. Exclusion criteria were septicaemia, connective tissue disordes, rheumatoid arthritis, crystal deposition diseases, known hereditary or congenital defects, immobilization for several weeks as well as treatment with corticosteroids and cytotoxic drugs.\n(§2) Tissue specimens obtained from each donor were cut into pieces of 3-6 mg in Dulbecco's modified Eagle's medium (DMEM) supplemented with penicillin (5.000 i.u. ml^−1) The tissue was washed 3 times with this culture medium. Cartilage pieces were taken at random, weighed and distributed into the different wells of multiwell culture plates (typically between 30 and 60 mg tissue/well). Extra pieces were not cultured but stored at −20° C. in order to assess the initial proteoglycans (PG) and HA contents of the cartilage. Culture medium supplemented with 20% (v/v) foetal calf serum (culture medium A) was then added to each well and the culture plates were placed in a 90%: 10% (v/v) air: CO2 humidified incubator for 48 h at 37° C.\n(§3) For each experiment the cartilage from one individual was used and tissue cultures were conducted in triplicate: that is, for the control culture as well as for each HA, Acetyl-carnitine (ALC) or HA+ALC, 3 cartilage explants were cultured separately. Reported values are the mean of the triplicate cultures.\nAfter one day of culture in medium A, the cartilage pieces were aspirated free of medium, washed 3 times with 1 ml of DMEM, resuspended in culture medium B (1 ml 50 mg^−1 tissue) and cultured for 12 h. After pulse labelling, the cartilage pieces were washed with DMEM and resuspended in culture medium A. Medium alone or the appropriate molecules (HA, ALC or HA+ALC) dissolved in medium were added to each well (10 μl ml^−1) as stated above and a non-radioactive chase period was conducted for 24 h. […]\n(§4) The Econo-Pak Q column (5 ml) was pre-equilibrated in buffer A at a flow rate of 2 ml min^−1. […] Fractions of 2 ml were collected and assayed for radioactivity. […]"}, "cartilage explants [3]": {"system": "cartilage explants", "assay": "PG and HA synthesis in cartilage explants (pulse studies, 3H-glucosamine)", "format": "cell-based, human", "method": "as §1, §2, §3\nAfter 2 day of culture, the culture medium was aspirated and the explants were washed 3 times with 1 ml of DMEM. Explants were resuspended in 5% FCS culture medium (1 ml 50 mg^−1 tissue) supplemented with ^3H-glucosamine (50 μCi ml^−1) (culture medium B). To each well, a solution of HA, Acetyl-carnitine (ALC) or HA+ALC, was added ([…] in culture medium) to achieve the final concentration of 100 μg of HA and 100 μg of ALC. Control culture received medium alone. Culture wells were then incubated for 12 h. […]\nas §4"}, "[4]": {"system": "barrier function of corneal epithelium", "assay": "Clinical trial in dry eye syndrome: barrier function of corneal epithelium (fluorescein test, fluorophotometry)", "format": "in vivo, human", "conditions": "27 dry eye patients, collyrium for 4 weeks; improvement after 2 weeks in lower cornea areas, 4 weeks in central ones", "description": "Dryness of the conjunctiva, isolated or in association with other ocular or extra-ocular disease, is recognizedly capable of inducing local damage on corneal epithelium which can, inter alia, lose its barrier function. […] According to the protocol, each patient received for 4 weeks a medication (hyaluronic acid) in the form of collyrium in one eye and a different treatment (hyaluronic acid/carnitine) in the other eye, so that each patient also acted as the control. Subjective evaluation and clinical examinations, associated with a fluorescein test, were carried out 2 weeks after the beginning of the treatment as well as at its end (4 weeks)."}, "[5]": {"system": "Dithranol induced inflammation", "assay": "Antiinflammatory activity on dithranol induced cutaneous inflammation", "format": "in vivo, Guinea pigs", "conditions": "48 hours", "description": "A specific cutaneous inflammatory reaction, caused by different phlogogenic factors both of exogenous and endogenous origin, including the formation of free radicals, lipoperoxides, prostaglandins and cytokines, is that induced by intradermal injection of dithranol, as described by Mustakallio (Mustakallio K., DERMATOVENER, 54, 125, 1979).\nDithranol is intradermally injected at the dose of 20 mcg on the back of shaved Guinea pigs.\nOn the opposite side of the back, before the injection of the same amount of dithranol, HA alone or acetyl-L-carnitine (AC) alone, or HA and AC together or the HA and AC complex, are spread.\nA mixture of lanolin and ethylene glycol monostearate was used to spread these compounds."}, "[6]": {"conditions": "100 μg of HA and/or 100 μg of ALC, 12 h pulse"}}, "data": [{"compound": "C[N+](C)(C)C[C@H](O)CC(=O)[O-]", "note": "[L-Carnitine, L-carnitine]", "values": [{"measurement": "number of patients with VERY GOOD result", "setting": "[1]; 30 day-treatment", "result": "in no patients"}, {"measurement": "overall results compared with the combination (in words)", "setting": "[1]", "result": "remarkably poorer"}]}, {"compound": "hyaluronic acid [HA]", "values": [{"measurement": "ornithinedecarboxylase activity", "setting": "ornithinedecarboxylase; 10 mg spread five minutes before theleocidin 5 mcg/mouse", "result": "21 ± 2.8 nmol of CO2/60 min./mg protein"}, {"measurement": "ornithinedecarboxylase activity", "setting": "ornithinedecarboxylase; 50 mg spread five minutes before theleocidin 5 mcg/mouse", "result": "31 ± 4.1 nmol of CO2/60 min./mg protein"}, {"measurement": "patients with GOOD result (at least 50% reduction of the lesion)", "setting": "[1]; 30 day-treatment", "result": 16, "unit": "%"}, {"measurement": "number of patients with VERY GOOD result", "setting": "[1]; 30 day-treatment", "result": "in no patients"}, {"measurement": "overall results compared with the combination (in words)", "setting": "[1]", "result": "remarkably poorer"}, {"measurement": "net loss of labelled PGs and HA (in words)", "setting": "cartilage explants [2]; 24 h chase, Table 5", "result": "reduced only the net loss of labelled HA"}, {"measurement": "% of radiolabelled molecules recovered in the media, [^3H] HA Loss/24 h", "setting": "cartilage explants [2]; 24 h non-radioactive chase", "result": "28.0 ± 6.09", "unit": "%"}, {"measurement": "% of radiolabelled molecules recovered in the media, [^3H] PG Loss/24 h", "setting": "cartilage explants [2]; 24 h non-radioactive chase", "result": "20.1 ± 7.5", "unit": "%"}, {"measurement": "HA synthesis d.p.m. [^3H] HA × 10^3/h/mg OH/proline", "setting": "cartilage explants [3]; [6]", "result": "4.5 ± 0.93 d.p.m. [^3H] HA × 10^3/h/mg OH/proline"}, {"measurement": "PG synthesis d.p.m. [^3H] PG × 10^3/h/mg OH/proline", "setting": "cartilage explants [3]; [6]", "result": "39.2 ± 9.2 d.p.m. [^3H] PG × 10^3/h/mg OH/proline"}, {"measurement": "PG and HA synthesis (in words)", "setting": "cartilage explants [3]; text summary of Table 4", "result": "slight increase"}, {"measurement": "symptoms and barrier function of corneal epithelium (in words)", "setting": "[4]", "result": "did not provide significant advantages"}, {"measurement": "% inhibition of phlogistic area compared with controls", "setting": "[5]; 10 mg spread on skin before dithranol 20 mcg intradermal", "result": "39 ± 1.6", "unit": "%"}, {"measurement": "% inhibition of phlogistic area compared with controls", "setting": "[5]; 50 mg spread on skin before dithranol 20 mcg intradermal", "result": "38 ± 2.9", "unit": "%"}, {"measurement": "inhibition of the inflammation area induced by dithranol", "setting": "[5]; dose not stated", "result": "about 30%"}]}]}
